Measured values reported in ChEMBL document CHEMBL1158733, “Iso-, nor-, and dinor-spiculoic acids A, polyketides from the marine sponge Plakortis zyggompha” (2005).
The source made the active and inactive calls. No cut-off for these calls is given here.

Assays:
Assay type in all cases: functional
HT-29 = assay: Cytotoxicity against human HT-29 cells SRB assay
MDA-MB-231 = assay: Cytotoxicity against human MDA-MB-231 cells SRB assay
A549 = assay: Cytotoxicity against human A549 cells SRB assay

## CC[C@@]1(/C=C/c2ccccc2)C=C(C)[C@H]2[C@@H]([C@@H](C)C(=O)[C@@H]2C)[C@]1(CC)C(=O)O
HT-29
  Activity: inactive
MDA-MB-231
  Activity: inactive
A549
  Activity: inactive

## CCC1=C[C@](/C=C/c2ccccc2)(CC)[C@@](CC)(C(=O)O)[C@H]2[C@H]1[C@@H](CC)C(=O)[C@@H]2C [ISOSPICULOIC ACID A]
HT-29
  GI50: 15 µM
MDA-MB-231
  GI50: > 25 µM
A549
  GI50: 15 µM

## CCC1=C[C@](/C=C/c2ccccc2)(CC)[C@@](CC)(C(=O)O)[C@H]2[C@H]1[C@@H](C)C(=O)[C@@H]2C [NOR-SPICULOIC ACID A]
HT-29
  GI50: 15 µM
MDA-MB-231
  GI50: > 25 µM
A549
  GI50: 15 µM
